Laboratory results taken from publication PMC8344761 (Journal of Enzyme Inhibition and Medicinal Chemistry, 2021).

What was measured:
Huh7 = assay: Cell proliferation assay (MTT); format: cell-based; details: Homo sapiens, Huh-7, 48 h, mean ± SEM of three independent experiments, read-out: Cancer cell proliferation IC50 Huh7
Procedure: (§1) Hepatocellular carcinoma cell lines (HepG2, Huh7), human pancreatic ductal epithelial cell line (H6c7), and normal human colon cell line (CCD841) were obtained from the American Type Culture Collection (ATCC) (Manassas, VA, USA). Cells were cultured in DMEM/High Glucose media (Hep3B, Huh7, CCD841) or MEM/EBSS media (HepG2) containing 10% FBS, 100 IU/ml of penicillin and 100 µg/ml of streptomycin. H6c7 cells were cultured in keratinocyte serum free media supplemented with epidermal growth factor and bovine pituitary extract. Cells were maintained in 5% CO2 humidified atmosphere at 37 °C.
(§2) Cells were seeded in a 96-well plate and allowed to adhere for 24 h. The cells were serum starved in 1% serum containing medium for 12 h, and then treated with drugs in 10% serum-containing medium. After incubation for 48 h, cell proliferation was measured using MTT assay. Optical density was measured at 540 nm using a Spectrostar Nano microplate reader (BMG LABTECH GmbH, Ortenberg, Germany).

Hep3B = assay: Cell proliferation assay (MTT); format: cell-based; details: Homo sapiens, 48 h, mean ± SEM of three independent experiments, read-out: Cancer cell proliferation IC50 Hep3B
Procedure: as §1, §2

HepG2 = assay: Cell proliferation assay (MTT); format: cell-based; details: Homo sapiens, 48 h, mean ± SEM of three independent experiments, read-out: Cancer cell proliferation IC50 HepG2
Procedure: as §1, §2

A-Raf = molecular target: T1, A-Raf (Homo sapiens, UniProt P10398); assay: Raf kinase assay (Kinase HotSpot, Reaction Biology Corp.); format: biochemical
T1 sequence (P10398 1-606): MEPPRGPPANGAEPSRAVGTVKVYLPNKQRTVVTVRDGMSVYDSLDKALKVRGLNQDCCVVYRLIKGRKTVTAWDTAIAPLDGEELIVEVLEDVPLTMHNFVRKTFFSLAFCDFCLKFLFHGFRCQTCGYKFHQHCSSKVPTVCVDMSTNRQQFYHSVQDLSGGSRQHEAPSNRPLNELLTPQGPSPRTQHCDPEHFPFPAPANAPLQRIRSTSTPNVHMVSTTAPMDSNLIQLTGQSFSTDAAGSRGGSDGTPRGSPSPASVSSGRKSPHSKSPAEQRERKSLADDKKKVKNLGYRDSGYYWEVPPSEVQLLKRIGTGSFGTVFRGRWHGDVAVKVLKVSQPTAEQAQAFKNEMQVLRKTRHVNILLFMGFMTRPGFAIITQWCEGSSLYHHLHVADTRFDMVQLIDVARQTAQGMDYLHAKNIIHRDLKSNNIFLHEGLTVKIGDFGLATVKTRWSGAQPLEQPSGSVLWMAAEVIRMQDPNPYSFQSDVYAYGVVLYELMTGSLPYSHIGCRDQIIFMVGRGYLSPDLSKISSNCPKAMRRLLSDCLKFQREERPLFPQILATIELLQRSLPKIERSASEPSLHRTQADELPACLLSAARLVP
Procedure: Compounds were delivered into each Raf reaction, followed ∼20 min later by addition of a mixture of ATP and [γ-^33P-ATP] (specific activity approx. 500 cpm/pmol, concentration as required) to a final concentration of 10 µM. […] Then, the reaction was spotted onto a P30 filtermat, and unbound phosphate was removed by washing three times for 5 min in 75 mM phosphoric acid and once in methanol prior to drying and scintillation counting. […] IC50 values and curve fits were obtained using Prism (GraphPad Software, La Jolla, CA).

Hep3B cells = assay: Sphere formation assay; format: cell-based; details: Homo sapiens, 48 h drug treatment, 13 days culture, read-out: % Inhibition of sphere forming Hep3B
Procedure: (§3) Sphere forming ability of Hep3B and Huh7 cells were examined after incubation with drugs for 48 h. Briefly, 3 × 10^3 cells which were pre-treated with or without drugs in prEGM media (Lonza, Basel, Switzerland) were seeded on an ultra-low adhering 24 well plate (Corning Incorporated Costar, Corning, NY). Twice a week, 500 µL of used medium was replaced with fresh prEGM media. At 13 days after plating, images of spheres were captured using Celloger Mini (Curiosis Inc., Seoul, South Korea). The number of spheroids over 50 µm in diameter was counted by using Image J software (National Institute of Health, Bethesda, MD).

Huh7 cells = assay: Sphere formation assay; format: cell-based; details: Homo sapiens, Huh-7, 48 h drug treatment, 13 days culture, read-out: % Inhibition of sphere forming Huh7
Procedure: as §3

[1] = system: Huh7 cells xenografted onto CAM; assay: Huh7-xenografted CAM tumour model; format: in vivo, chick; details: 10 µM final concentration on CAM; Huh7 xenograft
Procedure: Cancer cell xenograft onto chick chorioallantoic membrane (CAM), an in vivo tumour model, was used to evaluate anti-tumour efficacy of compounds. Fertilised chicken eggs purchased from Byeolbichon Farm (Gyeongbuk, South Korea) were incubated at 37 °C with 55% relative humidity. On day 9 of egg incubation (embryonic day 9, E9), a small hole was made in the shell over the air sac after the selection of bifurcated vessels. Another hole was made on the broadside using a needle by applying negative pressure from the wider part, creating false air sac. Using a grinding wheel (Dremel, Racine, WI), a small window (1 cm^2) was created in the eggshell above the false air sac. For generation of xenograft CAM tumour model, Huh7 cells (1.5 × 10^6 cells/CAM) were inoculated on the CAM with or without test drugs (10 µM final concentration). On day 13 of egg incubation (E13), tumour tissues attached to CAM were resected from the embryo and harvested. Photographs of tumour as well as blood vessel branches were taken using optical microscope (Olympus Corporation, Tokyo, Japan). Tumour tissues were weighted and the number of vessel branch points within the tumour region was counted.

VEGFR-2 tyrosine kinase = molecular target: T2, VEGFR-2 tyrosine kinase (Homo sapiens, UniProt P35968); assay: VEGFR-2 (KDR) kinase assay (ADP-glow); format: biochemical; details: fixed concentration 1 µM; read-out: inhibitory activity against VEGFR-2 tyrosine kinase
T2 construct: purchased Promega
Procedure: The VEGFR-2 (KDR) kinase assay was performed with a KDR (Promega, WI, USA) kinase enzyme system using the ADP-glow kinase assay kit (Promega) in accordance with the manufacturer's instructions. […] The reaction was carried out at 25 °C for 1 h in a total volume of 25 µl. Subsequently, 25 µl of ADP-Glow reagent was added to the mixture, and then incubated for 40 min at 25 °C. After the addition of 50 µl of ADP detection reagents for 30 min at 25 °C, luminescence was measured using a Fluostar Omega microplate reader (BMG LABTECH GmbH, Ortenberg, Germany).

[2] = Cytotoxicity assay (MTT), normal cells; format: cell-based, human; details: human, mean ± SEM
Procedure: as §1
Cells were seeded in a 96-well plate and allowed to adhere for 24 h. Cells in low serum (1%)-containing medium were treated with drugs for 48 h. In case of H6c7 cells, cells in keratinocyte serum free media were treated with drugs for 48 h. Then, cell viability was measured using MTT assay. Optical density was measured at 540 nm using a Spectrostar Nano microplate reader (BMG LABTECH).

T2 sequence (P35968 20-1356): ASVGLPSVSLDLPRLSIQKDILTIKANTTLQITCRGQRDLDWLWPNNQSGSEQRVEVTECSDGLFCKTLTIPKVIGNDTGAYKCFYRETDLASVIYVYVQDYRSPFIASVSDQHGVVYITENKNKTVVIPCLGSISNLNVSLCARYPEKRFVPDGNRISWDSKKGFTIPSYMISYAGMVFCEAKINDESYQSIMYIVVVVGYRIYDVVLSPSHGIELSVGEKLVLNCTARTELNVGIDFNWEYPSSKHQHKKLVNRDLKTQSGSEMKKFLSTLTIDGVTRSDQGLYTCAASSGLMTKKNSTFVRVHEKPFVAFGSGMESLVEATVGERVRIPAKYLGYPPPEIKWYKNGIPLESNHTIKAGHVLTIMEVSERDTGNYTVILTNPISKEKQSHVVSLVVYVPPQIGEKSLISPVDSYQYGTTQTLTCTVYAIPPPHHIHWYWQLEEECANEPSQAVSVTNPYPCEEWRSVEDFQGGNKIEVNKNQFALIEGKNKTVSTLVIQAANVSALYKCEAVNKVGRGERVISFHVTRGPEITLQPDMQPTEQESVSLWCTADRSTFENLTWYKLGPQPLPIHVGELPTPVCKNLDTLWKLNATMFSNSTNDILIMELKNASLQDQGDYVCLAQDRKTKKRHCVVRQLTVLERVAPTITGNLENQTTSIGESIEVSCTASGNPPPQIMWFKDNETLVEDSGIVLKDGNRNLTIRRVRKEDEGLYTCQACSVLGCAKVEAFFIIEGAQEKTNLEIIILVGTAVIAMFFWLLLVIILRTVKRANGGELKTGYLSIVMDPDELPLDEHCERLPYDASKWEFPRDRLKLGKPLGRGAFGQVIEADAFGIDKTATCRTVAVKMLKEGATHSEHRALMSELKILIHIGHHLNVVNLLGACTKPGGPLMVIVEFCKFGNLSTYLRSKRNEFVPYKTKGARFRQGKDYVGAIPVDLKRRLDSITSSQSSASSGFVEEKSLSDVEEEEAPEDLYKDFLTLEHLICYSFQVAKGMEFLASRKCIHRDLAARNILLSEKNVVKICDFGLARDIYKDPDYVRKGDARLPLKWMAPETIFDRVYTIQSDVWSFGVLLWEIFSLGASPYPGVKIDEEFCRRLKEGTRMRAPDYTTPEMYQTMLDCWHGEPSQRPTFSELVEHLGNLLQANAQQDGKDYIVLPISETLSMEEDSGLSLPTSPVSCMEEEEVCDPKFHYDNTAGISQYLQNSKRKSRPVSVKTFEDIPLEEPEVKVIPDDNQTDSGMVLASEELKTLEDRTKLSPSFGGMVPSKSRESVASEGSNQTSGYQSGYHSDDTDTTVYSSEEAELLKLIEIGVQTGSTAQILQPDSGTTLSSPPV

## CNC(=O)c1cc(Oc2c(C)nc(NC(=O)Nc3ccc(Cl)c(C(F)(F)F)c3)c(C)c2C)ccn1 [Compound 4, 4-((6–(3-(4-Chloro-3-(trifluoromethyl)phenyl)ureido)-2,4,5-trimethylpyridin-3-yl)oxy)-N-methylpicolinamide]
Huh7
  IC50: 5.29 ± 0.11 µM
Hep3B
  IC50: 6.23 ± 0.07 µM
HepG2
  IC50: 6.98 ± 0.08 µM
A-Raf; fixed concentration 1 μM, mean of two independent experiments
  inhibition at 1 µM: 56%
A-Raf; mean ± SD of two independent experiments, read-out: In vitro Raf kinase inhibition IC50 A-Raf
  IC50: 0.312 ± 0.0259 µM
Hep3B cells; 1 μM
  inhibition at 1 µM: 30.8%
Hep3B cells; 10 μM
  inhibition at 10 µM: 50.6%
Huh7 cells; 1 μM
  inhibition at 1 µM: 31.6%
Huh7 cells; 10 μM
  inhibition at 10 µM: 50.5%
[1]
  inhibitory effect on tumour weight: weaker than that of sorafenib
VEGFR-2 tyrosine kinase
  inhibition at 1 µM: ~32%
[2]; CCD841 cells (normal colon epithelial cell line)
  CC50 at 48 h: > 10 µM
[2]; H6c7 cells (normal pancreatic ductal epithelial cell line)
  CC50 at 48 h: > 10 µM
other
  melting point: 265 °C
